Measured values taken from patent US20250206722A1, “SMALL MOLECULE INHIBITORS OF TEA DOMAIN FAMILY MEMBERS” (The Scripps Research Institute, priority 2022, published 2025).

Columns and labels:
Type in all cases: cell-based
NCI-H226 cells [1] = assay: NCI-H226 proliferation assay (in house); settings: Homo sapiens, 120 h, 5 days, Cell TiterGlo, 20-point 1:2 dilution from 20 μM
Method in brief: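 Viability by CellTiter-Glo luminescence after 5-day compound exposure at 37 °C, 5% CO2. Compounds added 24 h post-seeding (500 cells/well, RPMI 1640 with 10% FBS) as 20-point, 2-fold series from 20 μM final, triplicate wells.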

[2] = tested on: transcriptional activity of TEADs; assay: TEAD reporter assay (MCF7 TEAD-LUC reporter cells); settings: Homo sapiens, 24 hours, BrightGlo luminescence
Method in brief: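 Luminescence (BrightGlo) was read after 24 h of compound treatment at 37 °C, 5 % CO2. Cells had been seeded at 5,000 per well in DMEM with 10 % FBS and insulin and rested 24 h first. Dosing used 20 points, 1:2 dilution from 20 μM final, triplicates.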

IMR32 cells = assay: IMR32 cytotoxicity assay; settings: Homo sapiens, IMR-32, 72 h, 3 days, Cell TiterGlo
Experimental: IMR32 cells were obtained from American Type Culture Collection (ATCC, CCL-127) and cultured in DMEM (Corning, 10-013-CV) supplemented with 10% fetal bovine serum (Gibco, 10438-026) and 1% penicillin-streptomycin (Gibco, 15070063). Cells were trypsinized, resuspended in growth medium, and diluted to a concentrated of 20,000 cells/mL. 1,000 cells, 50 μL of cell suspension, per well were then plated in a white 384-well plate (Corning) and incubated at 37° C., 5% CO2. After 24 hours incubation, 100 nL of test compounds in DMSO, 20-point 1:2 dilution starting from 20 μM (final concentration) in triplicate, were transferred to each well using an Agilent Bravo instrument outfitted with a pintool head. Cells were incubated at 37° C., 5% CO2 for 3 days followed by the addition of 30 μL of Cell TiterGlo (Promega; diluted 1:6 in water) to each well and luminescence values recorded using an EnVision plate reader. […]

NCI-H226 cells [3] = assay: NCI-H226 proliferation assay (Wuxi AppTec); settings: Homo sapiens, 168 h, 7 days, CellTiter-Glo, top dose 10, 3-fold dilution, 9 doses
Experimental: […] Proliferation Assay (From Wuxi AppTec CO.):
Day −1: Seeding cells • (1) Equilibrate cell culture medium to 37° C. • (2) Remove and discard the culture medium. • (3) Briefly rinse the cell layer with PBS to remove all traces of serum that contains […]. • (4) Add 2-3 mL of Trypsin-EDTA solution to flask and observe cells under an inverted microscope until cell layer is dispersed. • (5) Add 6-8 mL of growth medium to terminate the digestion of Trypsin/EDTA. • (6) Centrifuge the mixture (Trypsin EDTA and the growth medium) at 1000 rpm for 5 mins. • (7) Discard the supernatant, suspend the cell precipitation with the fresh growth medium, then take 1 mL the cell suspension to count cells with Vi-cell XR cell viability analyzer. • (8) Adjust the cell density to 500 cells/well for 384-well plates. • (9) Add 50 µL/well volume cell suspension to the assay plate. • (10) Add […] media to the control columns. • (11) Incubate the plate at 37° C., 5% CO2 for overnight. Day 0: Compounds treatment • (1) Add cpds to each well by Tecan HP D300E. The top dose is […], 3-fold dilution and 9 doses. DMSO final concentration will be normalized to 0.2%. • (2) Incubate the assay plate at 37° C., 5% CO2 for 7 days. Day 7: Plate read • (1) Equilibrate the assay plate to the room temperature for nearly 30 minutes. • (2) Add […] CellTiter-Glo reagent to each well and shake the plate for 1 min, incubate 10 min and keep them from light. • (3) Detect the plate by EnVision. Data analysis:
Max: Average of the DMSO group Min: Average of medium group.

Compound	IC50 (NCI-H226 cells [1]) [µM]	IC50 [2] [nM]	IC50 (IMR32 cells) [nM]	IC50 (NCI-H226 cells [3]) [µM]
N#CN1CCN(c2nccnc2Nc2ccc(C(F)(F)F)cc2)CC1 [Compound 2, 4-(3-{[4-(trifluoromethyl)phenyl]amino}pyrazin-2-yl)piperazine-1-carbonitrile]	0.252	468	> 20000	–
C=CC(=O)NC1CN(c2nccnc2Nc2ccc(C(F)(F)F)cc2)C1 [Example 3, N-(1-(3-((4-(trifluoromethyl)phenyl)amino)pyrazin-2-yl)azetidin-3-yl) acrylamide]	8.24	3760	10000	–
C=CC(=O)N[C@H]1C[C@@H](Nc2nccnc2Nc2ccc(C(F)(F)F)cc2)C1 [Example 5, N-((ls,3s)-3-((3-((4-(trifluoromethyl)phenyl)amino)pyrazin-2-yl)amino)cyclobutyl) acrylamide]	13.7	408	> 20000	–
C=CC(=O)NC1CC2(C1)CN(c1nccnc1Nc1ccc(C(F)(F)F)cc1)C2 [Example 6, N-(2-(3-((4-(trifluoromethyl)phenyl)amino)pyrazin-2-yl)-2-azaspiro[3.3]heptan-6-yl)acrylamide]	> 10	> 20000	> 20000	–
C=CC(=O)NC1CCN(c2nccnc2Nc2ccc(C(F)(F)F)cc2)C1 (stereo not drawn) [Example 7, N-(1-(3-((4-(trifluoromethyl)phenyl)amino)pyrazin-2-yl)pyrrolidin-3-yl)acrylamide]	0.195	28.6	> 10000	–
C=CC(=O)N1CCC(Nc2nccnc2Nc2ccc(C(F)(F)F)cc2)C1 (stereo not drawn) [Example 8, 1-(3-((3-((4-(trifluoromethyl)phenyl)amino)pyrazin-2-yl)amino)pyrrolidin-1-yl)prop-2-en-1-one]	8.48	49.3	> 5000	–
C=CC(=O)NC1CCN(c2nccnc2Nc2ccc(C(F)(F)F)cc2)CC1 [Example 9, N-(1-(3-((4-(trifluoromethyl)phenyl)amino)pyrazin-2-yl)piperidin-4-yl)acrylamide]	> 10	29.6	10000	–
C=CC(=O)NCC1CCCN(c2nccnc2Nc2ccc(C(F)(F)F)cc2)C1 (stereo not drawn) [Example 10, N-((1-(3-((4-(trifluoromethyl)phenyl)amino)pyrazin-2-yl)piperidin-3-yl)methyl)acrylamide]	> 14	11400	10000	–
C=CC(=O)N1CC2CC1CN2c1nccnc1Nc1ccc(C(F)(F)F)cc1 (stereo not drawn) [Example 11, 1-(5-(3-((4-(trifluoromethyl)phenyl)amino)pyrazin-2-yl)-2,5-diazabicyclo[2.2.1]heptan-2-yl)prop-2-en-1-one]	0.483	43.5	1410	–
C=CC(=O)N1CCN(c2nccnc2N2CC(c3ccc(F)cc3)C2)CC1 [Example 107, 1-(4-(3-(3-(4-fluorophenyl)azetidin-1-yl)pyrazin-2-yl)piperazin-1-yl)prop-2-en-1-one]	0.018	0.7	–	0.049
C=CC(=O)N1CCN(c2nccnc2N2CC3(CC(C(F)(F)F)C3)C2)CC1 [Example 110, 1-(4-(3-(6-(trifluoromethyl)-2-azaspiro[3.3]heptan-2-yl)pyrazin-2-yl)piperazin-1-yl)prop-2-en-1-one]	0.067	3	–	0.046
C=CC(=O)N1CCN(c2nc(C)c(C)nc2Nc2ccc(C(F)(F)F)nc2)CC1 [Example 113, 1-(4-(5,6-dimethyl-3-((6-(trifluoromethyl)pyridin-3-yl)amino)pyrazin-2-yl)piperazin-1-yl)prop-2-en-1-one]	0.04	2.7	–	0.032
C=CC(=O)N1CCN(c2ccnnc2Nc2ccc(C(F)(F)F)cc2)CC1 [Example 119, 1-(4-(3-((4-(trifluoromethyl)phenyl)amino)pyridazin-4-yl)piperazin-1-yl)prop-2-en-1-one]	0.012	3.2	–	0.042
C=CC(=O)N1CCC(c2cncnc2Oc2ccc(C(F)(F)F)nc2)CC1 [Example 126, 1-(4-(4-((6-(trifluoromethyl)pyridin-3-yl)oxy)pyrimidin-5-yl)piperidin-1-yl)prop-2-en-1-one]	0.364	19.1	–	0.339
C=CC(=O)N1CCN(c2nc(C)ncc2Nc2ccc(C(F)(F)F)cc2)CC1 [Example 128, 1-(4-(2-methyl-5-((4-(trifluoromethyl)phenyl)amino)pyrimidin-4-yl)piperazin-1-yl)prop-2-en-1-one]	0.179	1.6	–	0.082
C=CC(=O)N1CC=C(c2cnc(C)nc2Oc2ccc(C(F)(F)F)nc2)CC1 [Example 129, 1-(4-(2-methyl-4-((6-(trifluoromethyl)pyridin-3-yl)oxy)pyrimidin-5-yl)-3,6-dihydropyridin-1(2H)-yl)prop-2-en-1-one]	0.104	1.2	–	0.137
C=CC(=O)N1CCC(c2ncccc2Oc2ccc(C(F)(F)F)nc2)CC1 [Example 138, 1-(4-(3-((6-(trifluoromethyl)pyridin-3-yl)oxy)pyridin-2-yl)piperidin-1-yl)prop-2-en-1-one]	2.4	54	–	0.134
C=CC(=O)N1CC=C(c2cccnc2Nc2ccc(C(F)(F)F)nc2)CC1 [Example 145, 1-(2-((6-(trifluoromethyl)pyridin-3-yl)amino)-3′,6′-dihydro-[3,4′-bipyridin]-1′(2′H)-yl)prop-2-en-1-one]	0.029	2.4	–	0.017
C=CC(=O)N1CC=C(c2cccnc2Oc2ccc(C(F)(F)F)nc2)CC1 [Example 153, 1-(2-((6-(trifluoromethyl)pyridin-3-yl)oxy)-3′,6′-dihydro-[3,4′-bipyridin]-1′(2′H)-yl)prop-2-en-1-one]	0.034	1.4	–	0.065
C=C(F)C(=O)N1CC=C(c2cccnc2Oc2ccc(C(F)(F)F)nc2)CC1 [Example 154, 2-fluoro-1-(2-((6-(trifluoromethyl)pyridin-3-yl)oxy)-3′,6′-dihydro-[3,4′-bipyridin]-1′(2′H)-yl)prop-2-en-1-one]	0.05	2.9	–	0.02
C=CC(=O)N1CCC(c2cccnc2Oc2ccc(C(F)(F)F)nc2)CC1 [Example 155, 1-(4-(2-((6-(trifluoromethyl)pyridin-3-yl)oxy)pyridin-3-yl)piperidin-1-yl)prop-2-en-1-one]	0.015	1.8	–	0.018
C=CC(=O)N1CC=C(c2cccnc2Oc2cnc(C(F)(F)F)nc2)CC1 [Example 157, 1-(2-((2-(trifluoromethyl)pyrimidin-5-yl)oxy)-3′,6′-dihydro-[3,4′-bipyridin]-1′(2′H)-yl)prop-2-en-1-one]	0.132	1.6	–	0.013
C=CC(=O)N1CCC(c2cccnc2Oc2cnc(C(F)(F)F)nc2)CC1 [Example 159, 1-(4-(2-((2-(trifluoromethyl)pyrimidin-5-yl)oxy)pyridin-3-yl)piperidin-1-yl)prop-2-en-1-one]	0.022	1.8	–	0.051
C=CC(=O)N1CCC(n2nc(C)cc2C(=O)c2ccc(C(F)(F)F)cc2)CC1 [Example 166, 1-(4-(3-methyl-5-(4-(trifluoromethyl)benzoyl)-1H-pyrazol-1-yl)piperidin-1-yl)prop-2-en-1-one]	0.02	0.6	–	0.015
N#C/C=C/C(=O)N1CCN(c2nccnc2Nc2ccc(C(F)(F)F)cc2)CC1 [Example 181, (E)-4-oxo-4-(4-(3-((4-(trifluoromethyl)phenyl)amino)pyrazin-2-yl)piperazin-1-yl)but-2-enenitrile]	0.034	0.44	–	0.026
